Data: patent publication US20250026743A1, “HETEROARYL-LINKED ANALOGS AS MGLU5 NEGATIVE ALLOSTERIC MODULATORS AND METHODS OF MAKING AND USING THE SAME” (Vanderbilt University, priority 2021, published 2025)
Like-named read-outs stand apart in the source and are kept apart here.

Biological target: T1, hmGlu5 (Homo sapiens, UniProt P41594)
T1 construct: expressed in transfected cells; host or cells: HEK 293A
Experiment: mGlu5 Ca2+ flux assay in HEK 293A cells (negative allosteric modulation of glutamate EC80 response)
Assay type: cell-based
Conditions: for remaining activity at 30 µM: HEK293-A, read-out: hmGlu5 NAM Emin (%)
How it was run: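 HEK 293A cells stably expressing rat or human mGlu5, Fluo-4 AM loaded; compound added 2.3 min before glutamate EC20, then EC80; Ca2+ fluorescence peak amplitudes (F/F0) normalised to glutamate max. IC50 from 4-parameter logistic fit, 10-point 1:3 curves, top 30 μM; partial NAMs plateau above 10% Glu Max.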

[1] = HEK 293A cells, Ca2+ flux, glutamate EC80, >10,000 = decrease without plateau, read-out: hmGlu5 NAM IC50

T1 sequence (P41594 21-1212): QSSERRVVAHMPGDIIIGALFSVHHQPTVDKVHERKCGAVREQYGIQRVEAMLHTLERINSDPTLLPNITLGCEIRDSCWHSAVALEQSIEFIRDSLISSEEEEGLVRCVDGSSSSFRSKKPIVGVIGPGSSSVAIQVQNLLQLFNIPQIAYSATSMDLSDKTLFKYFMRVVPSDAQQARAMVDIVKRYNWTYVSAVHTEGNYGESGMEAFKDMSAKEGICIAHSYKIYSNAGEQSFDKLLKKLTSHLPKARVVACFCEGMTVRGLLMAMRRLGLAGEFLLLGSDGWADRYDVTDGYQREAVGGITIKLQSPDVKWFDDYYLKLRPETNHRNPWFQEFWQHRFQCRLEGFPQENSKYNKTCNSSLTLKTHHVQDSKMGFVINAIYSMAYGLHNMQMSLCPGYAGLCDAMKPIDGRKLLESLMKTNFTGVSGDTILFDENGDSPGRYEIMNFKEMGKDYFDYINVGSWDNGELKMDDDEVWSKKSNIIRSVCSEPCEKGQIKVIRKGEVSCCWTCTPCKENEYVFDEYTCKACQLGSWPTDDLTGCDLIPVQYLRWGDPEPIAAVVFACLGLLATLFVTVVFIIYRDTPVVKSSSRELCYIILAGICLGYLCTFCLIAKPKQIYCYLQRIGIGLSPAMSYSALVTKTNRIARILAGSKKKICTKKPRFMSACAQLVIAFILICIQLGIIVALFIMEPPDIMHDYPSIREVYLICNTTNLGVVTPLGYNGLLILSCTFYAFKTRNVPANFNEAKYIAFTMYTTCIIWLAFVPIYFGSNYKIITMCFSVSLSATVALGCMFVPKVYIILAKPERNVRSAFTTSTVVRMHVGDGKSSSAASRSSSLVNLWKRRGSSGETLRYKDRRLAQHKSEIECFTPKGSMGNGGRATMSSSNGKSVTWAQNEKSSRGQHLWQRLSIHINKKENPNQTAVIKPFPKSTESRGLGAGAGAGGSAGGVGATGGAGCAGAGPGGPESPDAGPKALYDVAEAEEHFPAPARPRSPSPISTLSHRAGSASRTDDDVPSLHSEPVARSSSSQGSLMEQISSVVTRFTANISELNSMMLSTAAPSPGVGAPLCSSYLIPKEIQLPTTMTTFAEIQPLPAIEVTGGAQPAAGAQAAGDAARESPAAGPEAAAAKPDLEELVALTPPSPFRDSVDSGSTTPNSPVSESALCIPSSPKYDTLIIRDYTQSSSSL

remaining activity at 30 µM (% Glu max at 30 μM) [%]	IC50 [1] [nM]	Structure (SMILES)	IC50 [nM]	remaining activity at 30 µM [%]
23	481	Cc1nc(-c2nc(-c3cscn3)no2)cc(-c2cncc(F)c2)c1F [Compound 53, 5-(5,5′-difluoro-6′-methyl-[3,4′-bipyridin]-2′-yl)-3-(thiazol-4-yl)-1,2,4-oxadiazole]	–	–
5	1290	Cc1nc(-c2noc(-c3ccc(F)cn3)n2)cc(-c2cncc(C(C)(C)O)c2)c1F [Compound 62, 2-(3′-fluoro-6′-(5-(5-fluoropyridin-2-yl)-1,2,4-oxadiazol-3-yl)-2′-methyl-[3,4′-bipyridin]-5-yl)propan-2-ol]	–	–
1	450	[2H]C([2H])([2H])c1cc(-c2cncc(F)c2)cc(-c2nnc(-c3ccc(F)cn3)o2)n1 [Compound 85, 2-(5-fluoro-6′-(methyl-d3)-[3,4′-bipyridin]-2′-yl)-5-(5-fluoropyridin-2-yl)-1,3,4-oxadiazole]	–	–
1	122	Cc1csc(-c2noc(-c3cc(-c4cncc(F)c4)c(F)c(C)n3)n2)n1 [Compound 104, 5-(5,5′-difluoro-6′-methyl-[3,4′-bipyridin]-2′-yl)-3-(4-methylthiazol-2-yl)-1,2,4-oxadiazole]	–	–
11	114	COc1c(-c2cncc(F)c2)cc(-c2n[nH]c(-c3cccc(F)c3)n2)nc1C [Compound 101, 5-fluoro-6′-(5-(3-fluorophenyl)-1H-1,2,4-triazol-3-yl)-3′-methoxy-2′-methyl-3,4′-bipyridine]	–	–
4	51	Cc1nc(-c2nc(-c3ccc(F)cn3)no2)cc(-c2cncc(F)c2)c1F [Compound 59, 5-(5,5′-difluoro-6′-methyl-[3,4′-bipyridin]-2′-yl)-3-(5-fluoropyridin-2-yl)-1,2,4-oxadiazole]	–	–
2	183	Cc1ccncc1-c1cc(-c2n[nH]c(-c3ccc(F)cn3)n2)nc(C)c1F [Compound 97, 3′-fluoro-6′-(5-(5-fluoropyridin-2-yl)-1H-1,2,4-triazol-3-yl)-2′,4-dimethyl-3,4′-bipyridine]	–	–

Second part, the molecule before the results:

Structure (SMILES)	remaining activity at 30 µM (% Glu max at 30 μM) [%]	IC50 [1] [nM]	IC50 [nM]	remaining activity at 30 µM [%]
Cc1csc(-c2nc(-c3cc(-c4cnc(C)s4)c(F)c(C)n3)no2)n1 [Compound 18, 3-(5-fluoro-6-methyl-4-(2-methylthiazol-5-yl)pyridin-2-yl)-5-(4-methylthiazol-2-yl)-1,2,4-oxadiazole]	13	1130	–	–
Cc1ccncc1-c1cc(-c2noc(-c3cccc(Cl)c3)n2)nc(C)c1F [Compound 23, 5-(3-chlorophenyl)-3-(5′-fluoro-4,6′-dimethyl-[3,4′-bipyridin]-2′-yl)-1,2,4-oxadiazole]	2	117	–	–
Cc1nc(-c2noc(-c3ccc(F)cn3)n2)cc(-c2cncc(C#N)c2)c1F [Compound 68, 3′-fluoro-6′-(5-(5-fluoropyridin-2-yl)-1,2,4-oxadiazol-3-yl)-2′-methyl-[3,4′-bipyridine]-5-carbonitrile]	3	757	–	–
Cc1ccncc1-c1cc(-c2noc(-c3cccc(F)c3)n2)nc(C)c1F [Compound 20, 3-(5′-fluoro-4,6′-dimethyl-[3,4′-bipyridin]-2′-yl)-5-(3-fluorophenyl)-1,2,4-oxadiazole]	2	49	–	–
Cc1csc(-c2nc(-c3cc(-c4cncc(F)c4)c(F)c(C)n3)no2)n1 [Compound 16, 3-(5,5′-difluoro-6′-methyl-[3,4′-bipyridin]-2′-yl)-5-(4-methylthiazol-2-yl)-1,2,4-oxadiazole]	9	613	–	–
Cc1nc(-c2nnc(-c3ccncc3)o2)cc(-c2cncc(F)c2)c1F [Compound 81, 2-(5,5′-difluoro-6′-methyl-[3,4′-bipyridin]-2′-yl)-5-(pyridin-4-yl)-1,3,4-oxadiazole]	–	–	> 10000	55
